Experimental data published in patent US20240309018A1, “THIAZOLE-LACTAM-SPIROHETEROCYCLIC COMPOUNDS AND APPLICATIONS THEREOF” (D3 BIO (WUXI) CO., LTD, priority 2021, published 2024).

Legend:
[1] = tested on: human melanoma A375 cells; assay: In vivo efficacy in subcutaneous xenograft tumor model of human melanoma A375; settings: PO, BID, day 21, BALB/c nude mouse A375 xenograft
Description: The anti-tumor effect of WX001 was evaluated using a subcutaneous xenograft tumor model of human melanoma A375 cells in nude mouse.
• Species: mouse • Strain: BALB/c nude mouse • Age: 6-8 weeks old • Gender: female • Body weight: 18-22 grams • Supplier: Vital River Laboratory Animal Technology Co., Ltd.
• 1) Assay cells and culture: Human melanoma A375 cells were cultured in monolayer in vitro. The culture conditions were DMEM medium plus 10% fetal bovine serum, and a 37° C. 5% CO2 incubator. Routine digestion with trypsin-EDTA was performed twice a week for passage. When the cell saturation was 80%-90% and the amount reached the requirement, the cells were harvested, counted, and inoculated: • 2) Tumor tissue inoculation and grouping: 0.1 mL (5×10^5) of A375 cells were subcutaneously inoculated into the right armpit of each mouse. When the average tumor volume reached 170 mm^3, the animals were randomly divided into 4 groups and the administration was started.
• 3) Daily observation of assay animals: The development of this assay protocol and any modifications were evaluated and approved by the Institutional Animal Care and Use Committee (IACUC). […] Animals were monitored daily for health and death. […] Animal deaths and side effects in each group were recorded based on the number of animals in each group. • 4) Formulation of assay compound • a) Vehicle group: 5% DMSO+95% (20% HP-β-CD). • b) Assay compound group: A quantitative amount of the assay compound was weighed in a formulation bottle. […] A corresponding volume of 20% HP-β-CD was added and then the mixture was vortexed to obtain a homogeneous suspension. • 5) Tumor measurement and assay indicator: • a) Tumor diameter was measured twice a week with a vernier caliper. The calculation formula of tumor volume was: TV=1/2×a×b^2, wherein a and b represent the long and short diameters of tumor, respectively: • b) The tumor-inhibitory efficacy of the compound was evaluated by TGI (%). […]

[2] = In vivo PK study in cynomolgus monkeys; set-up: species or system cynomolgus monkey; settings: male cynomolgus monkeys
Description: Male cynomolgus monkeys were used as assay animals. After a single administration, the plasma concentration of the compound was measured and the pharmacokinetic behavior was evaluated.
Five healthy adult male cynomolgus monkeys were selected, wherein 2 animals were in an intravenous injection group, and 3 animals were in an oral group. The vehicle in the intravenous injection group was 5% DMSO+95% (20% HP-β-CD). The compound to be assayed was mixed with an appropriate amount of vehicle for intravenous injection, and dissolved with stirring to prepare a clear solution of 0.4 mg/mL. The clear solution was filtered by a microporous membrane, and then ready for use. The vehicle in the oral group was 5% DMSO+95% (20% HP-β-CD). The compound to be assayed was mixed with the vehicle, and dissolved with stirring to prepare a solution of 0.3 mg/mL. Cynomolgus monkeys were administered 1 mg/kg intravenously or 3 mg/kg orally, and then whole blood was collected for a certain period. Plasma was prepared. The drug concentration was analyzed by LC-MS/MS method, and the pharmacokinetic parameters were calculated by Phoenix WinNonlin software (Pharsight, USA).

[3] = tested on: human plasma albumin; assay: Plasma protein binding (ultracentrifugation), human; assay type: in vitro ADME; further: tested at 0.2 µM
Description: (§1) The binding degree of the assay compound to human/mouse/rat/canine/monkey plasma albumin was studied.
(§2) • 1) Matrix preparation: on the day of the assay, plasma was thawed in cold water and centrifuged at 3220 rpm for 5 min to remove all clots. The pH of the resulting plasma was measured and adjusted to 7.4±0.1 using 1% phosphoric acid or IN sodium hydroxide as needed. • 2) Dilution procedure for the assay compound: the assay compound was dissolved in dimethyl sulfoxide (DMSO) to prepare stock solutions with concentrations of 10 mM and 2 mM, respectively. A 40 μM working solution was prepared by diluting 2 μL of stock solution (2 mM) with 98 μL of DMSO. A 400 μM working solution of the control compound was prepared by diluting 10 μL of stock solution with 240 μL of DMSO. The working solution of the compound (5 μL) was mixed well with a blank matrix (995 μL) at a ratio of 1:200 to prepare a loading matrix.
(§3) • a) An equal volume of 30 μL of loading matrix (n=2) was transferred to a sample collection plate to prepare a time 0 (TO) sample for residue determination. The sample was immediately matched with the corresponding blank buffer to a final volume of 60 μL, and the volume ratio of plasma to buffer in each well was 1:1. […] The mixture was centrifuged at 4000 rpm for 20 min and 100 μL of supernatant from each sample was analyzed by LC-MS/MS.

[4] = tested on: mouse plasma albumin; assay: Plasma protein binding (ultracentrifugation), mouse; assay type: in vitro ADME; further: tested at 0.2 µM
Description: as §1, §2, §3

## Cc1cccc(CN2C(=O)c3nc(-c4nc(Nc5ccnn5C)ncc4C)sc3C23COC3)n1 [WX001]
[1]; 12.5 mg/kg
  TGI: 45%
[1]; 25 mg/kg
  TGI: 58%
[1]; 50 mg/kg
  TGI: 102%
[2]; cynomolgus monkey, plasma, intravenous, 1 mg/kg intravenously or 3 mg/kg orally
  clearance: 16.1 mL/min/kg
[2]; cynomolgus monkey, plasma, intravenous, 1 mg/kg intravenously or 3 mg/kg orally, read-out: Vdss
  Vd: 1.98 L/kg
[2]; cynomolgus monkey, plasma, 1 mg/kg intravenously or 3 mg/kg orally
  half-life: 2.41 h
[2]; cynomolgus monkey, plasma, 1 mg/kg intravenously, 3 mg/kg orally, oral bioavailability
  bioavailability: 50%
[2]; cynomolgus monkey, single dose, 1 mg/kg intravenously or 3 mg/kg orally, plasma
  Cmax: 921 nM
[2]; 3 mg/kg orally, AUCPO/Dose
  Oral DNAUC: 1152.35 nM · h/mpk
[3]
  Plasma protein binding rate (unbound %): 15.9%
[4]
  Plasma protein binding rate (unbound %): 11.7%
